Measurements reported in patent US20260070921A1, “COMPOUND, ENDOPLASMIC RETICULUM STRESS INHIBITOR, PHARMACEUTICAL PRODUCT, OPHTHALMIC AGENT, EYE DROPS, COMPOSITION, AND METHOD FOR PRODUCING COMPOUND” (KYOTO UNIVERSITY, priority 2022, published 2026).

Key:
[1] = Reversibility of self-assembly on dilution (DCVJ fluorescence); assay type: physicochemical; conditions: dilution of preformed assemblies
Experimental: Compound 1 (100 μM) was incubated in DMEM (10% FBS, 0.5, DMSO) at 25° C. for 1 hour to allow it to form self-assemblies. A solution of pre-formed assemblies of compound 1 was diluted in various ratios with DMEM (10% FBS, 0.5% DMSO). All samples contained 1.0 μM DCVJ, an environmentally sensitive dye, to quantify the amount of self-assembly of compound 1 by fluorescence. If the self-assembly is irreversible (upper graph in the frame), the fluorescence signal is linear with respect to the amount of the compound. […] In the two graphs within the frame, the vertical axis represents fluorescence, and the horizontal axis represents concentration. […] A time-dependent decrease in fluorescence at 25 μM (as a monomer of compound 1) was also observed. Error bars represent s.d. (n=3).

[2] = Dynamic light scattering (DLS) of self-assemblies; assay type: physicochemical
Excerpt: In the graphs on the left, the vertical axis “Z-ave. (nm)” represents the average particle size. In the graphs on the right, the vertical axis “Derived Count Rate (kcps)” represents the derived count rate. The horizontal axis represents the molar concentration (PM) of PBS (pH of 7.4) and DMEM (10% FBS). Error bars represent s.d. (n=3).
“Z-ave.” represents the average size of particles. Error bars represent s.d. (n=3).
“Z-average” represents the average size of particles. Error bars represent s.d. (n=3).

Atg5, and Atg12 = assay: Western blotting of sclera after myopia induction, Atg5/Atg12; assay type: in vivo, mice; conditions: eye drop 3 weeks
Experimental: (§1) A −30 diopter (unit of refractive index: D) lens was attached to the right eye of 3-week-old male C57BL6J mice, while only a lens frame was attached to the left eye, which served as a control eye. The lenses were worn for three weeks, and the refractive index and axial length of eyes were measured before and after attachment of the lenses. Concurrently with myopia induction, an eye drop, which is a 0.025 solution of X441A in PBS, was administered by instillation once a day every day. PBS was administered by eye drop to the control group (group administered with PBS). After 3 weeks of myopia induction and eye drop administration, the eyeballs were enucleated from the mice, and the sclera was isolated. Then, western blotting was performed to analyze the expression levels of p62, Atg5, and Atg12 in each group.
(§2) After 3 weeks of myopia induction and eye drop administration, the eyeballs were enucleated from the mice, and the sclera was isolated. Then, western blotting was performed to analyze the expression levels of p62, Atg5, and Atg12 in the group administered with X441A and the group administered with PBS.

caspase 3 = assay: Western blotting of TGF-β2-induced caspase activation in iFECD; assay type: cell-based, human; conditions: TGF-β2 stimulated iFECD
Experimental: In order to collect floating cells and dead cells, the medium was collected on ice, and the solution resulting from washing cells with 1×PBS(−) twice was also collected and centrifuged at 4° C. at 800 g for 12 minutes, followed by discarding the supernatant, thereby obtaining a precipitate. Proteins were extracted from the washed cells by adding a protein extraction buffer (RIPA; 50 mM Tris-HCl (pH of 7.4), 150 mM NaCl, 1 mM EDTA, 0.1% SDS, 0.5% DOC, 1% NP-40) on ice. Thereafter, the precipitate obtained after centrifugation of the floating cells and dead cells was suspended together and extracted. The collected liquid was pulverized in cold water for 30 seconds three times with an ultrasonic device (BIORUPTOR, Tosho Denki) and then centrifuged at 4° C. at 15000 rpm for 10 minutes to collect the protein supernatant.
5 to 8 μg of the extracted proteins were separated by SDS-PAGE and transferred to a nitrocellulose membrane. The primary antibodies used were rabbit anti-Caspase 3 antibody (Cell Signaling, 9662), rabbit anti-PARP antibody (Cell Signaling, 9542), and mouse anti-GAPDH antibody (MBL, M171-3). […] The intensity of the detected bands was analyzed using a LAS-4000mini lumino image analyzer (Fujifilm) and ImageQuant™ software (GE Healthcare).

[3] = system: pIRE1/IRE and p-eIF2/eIF2; assay: Endoplasmic reticulum stress pathway activation in myopic sclera; assay type: in vivo, mice; conditions: eye drop 3 weeks
Excerpt: Thus, the attachment of a minus lens may enhance autophagy, and autophagy was not shown to be complete in the control group. […] This is thought to be the mechanism by which myopia progression is inhibited.

[4] = Confocal microscopy of Nile red-stained assemblies; assay type: physicochemical; conditions: cell culture medium, prolonged incubation (>5 hr)
Experimental: Doping with the environmentally sensitive dyes, Nile red and 9-(2,2-dicyanovinyl)julolidine (DCVJ), enabled detection of assembly formation by fluorescence spectroscopy and confocal microscopy. The relative amount of self-organization of compound 1 was quantified using DCVJ to form a DMEM-normalized dose-organization curve (FIG. 24). Fitting with a sigmoid curve gave an apparent half-maximal assembly concentration (AC50) of 29.7 μM for the molecules of compound 1. […] In confocal microscopy, assemblies of compound 1 stained with Nile red were readily detectable in PBS (pH of 7.4). In the cell culture medium, assemblies of compound 1 stained with Nile red were initially not visible due to the small particle size, but prolonged incubation (>5 hr) led to the formation of larger detectable assemblies (>1 μm in diameter).

BSA = BSA (Bos taurus, UniProt P02769); assay: Native PAGE analysis of heat-induced BSA denaturation; assay type: biochemical; conditions: 75° C. 1 h; compounds 100 μM, PBA 10 mM
Sequence of BSA (P02769 25-607): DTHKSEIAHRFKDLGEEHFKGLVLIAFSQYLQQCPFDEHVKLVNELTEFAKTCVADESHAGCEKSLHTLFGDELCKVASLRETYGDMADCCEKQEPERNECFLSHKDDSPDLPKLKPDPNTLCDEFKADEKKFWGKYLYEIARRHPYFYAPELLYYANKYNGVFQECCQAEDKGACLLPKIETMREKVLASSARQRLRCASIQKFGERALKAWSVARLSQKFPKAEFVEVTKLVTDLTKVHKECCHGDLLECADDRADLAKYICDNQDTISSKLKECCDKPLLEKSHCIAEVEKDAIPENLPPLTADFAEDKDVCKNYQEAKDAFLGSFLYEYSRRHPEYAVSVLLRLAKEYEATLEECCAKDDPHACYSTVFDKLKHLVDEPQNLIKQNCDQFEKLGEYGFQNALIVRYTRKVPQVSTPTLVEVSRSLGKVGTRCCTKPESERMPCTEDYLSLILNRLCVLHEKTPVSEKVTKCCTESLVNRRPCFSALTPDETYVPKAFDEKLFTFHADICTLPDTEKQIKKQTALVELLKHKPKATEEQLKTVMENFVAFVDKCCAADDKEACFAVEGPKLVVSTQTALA
Experimental: Samples were subjected to native PAGE analysis using 8% acrylamide gels in 0.1 M Tris-HCl, pH of 7.8 (cathode) and 68 mM glycine, 53 mM Tris-HCl, pH of 8.9 (anode). After staining the gel with Coomassie Brilliant Blue, images were taken using an ImageQuant LAS500 imager (Cytiva).

fibronectin = assay: Western blotting of TGF-β2-induced fibronectin production in iFECD; assay type: cell-based, human; conditions: TGF-β2 stimulated iFECD
Experimental: 5 μg of the extracted proteins were separated by SDS-PAGE and transferred to a nitrocellulose membrane. The primary antibodies used were mouse anti-fibronectin antibody (BD Bioscience, 610077) and mouse anti-GAPDH antibody (MBL, M171-3). The secondary antibodies used were peroxidase-labeled anti-rabbit antibody and anti-mouse antibody (GE Healthcare Biosciences, NA931V, NA934V). The primary antibodies were diluted as follows: mouse anti-fibronectin antibody, 15,000-fold; and mouse anti-GAPDH antibody, 5,000-fold. The secondary antibodies were diluted 5,000-fold. For detection, Chemi Lumi ONE Ultra (Nacalai Tesque, 11644-40) was used. The intensity of the detected bands was analyzed using a LAS-4000mini lumino image analyzer (Fujifilm) and ImageQuant™ software (GE Healthcare).

p62 = assay: Western blotting of sclera after myopia induction, p62; assay type: in vivo, mice; conditions: eye drop 3 weeks
Experimental: as §1, §2

| Compound | Reversibility of self-assembly [1] | Average size of the assemblies (diameter) ([2]; DMEM (10% FBS), 100 μM) [nm] | Average size of the assemblies (diameter) ([2]; PBS (pH of 7.4), 100 μM) | Increase in expression of At5/Atg12 (Atg5, and Atg12) | Cleaved active caspase 3 (about 17 kDa) (caspase 3) | Activation of the endoplasmic reticulum stress pathway caused by myopia induction [3] | Diameter of detectable assemblies [4] [μm] | Inhibition of heat-induced denaturation of BSA (BSA) | Fibronectin production (fibronectin) | Expression level of p62 (p62) | Average size of the assemblies (diameter) ([2]; cell culture medium, 25 μM) [nm] |
| --- | --- | --- | --- | --- | --- | --- | --- | --- | --- | --- | --- |
| NS(=O)(=O)c1ccc(Nc2ccn3c(n2)nc(=O)c2sc4cc(F)ccc4c23)cc1 [compound 1] | disintegration of the particles | ~200 | about 700 nm | enhanced regardless of the administration of X441A | hardly detected | did not occur | > 1 | does not exhibit activity to inhibit the thermal denaturation of BSA | almost no production of fibronectin was observed | decreased |  |
| COc1ccc2c(c1)sc1c(=O)nc3nc(Nc4ccc(S(N)(=O)=O)cc4)ccn3c12 [compound 6] |  |  |  |  | hardly detected |  |  | does not exhibit activity to inhibit the thermal denaturation of BSA | almost no production of fibronectin was observed |  | 130 |
